This note sets out measurements from patent publication US8710045B2, “Agents for preventing and treating disorders involving modulation of the ryanodine receptors” (The Trustees of Columbia University in the City of New York, priority 2004, dated 2014).

Several values for one entry are separate records, joined by “and”; a condition that tells them apart may be missing. Identical values can stand only once. Like-named read-outs stand apart in the source and are kept apart here.

One data set has as its target hERG current (Homo sapiens, UniProt Q12809). Kind of data set: hERG current, PatchXpress 7000A automatic parallel patch clamp in hERG-transfected HEK 293 cells (Example 6). The conditions noted are these: for Individual Data (% Inhibition): single cell. An outline of the steps: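 Stable hERG-HEK293 cells on automated patch clamp; from −80 mV holding, +20 mV for 2 s then −50 mV for 2 s, every 10 s, peak tail current measured.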

The target of a further data set is hERG potassium current (Homo sapiens, UniProt Q12809). The experiment in a line: S107 specificity: hERG potassium current. Conditions: 500 nM. (In general: hERG is a cardiac potassium channel; its block is linked to QT prolongation.)
hERG potassium current, sequence (Q12809 whole entry): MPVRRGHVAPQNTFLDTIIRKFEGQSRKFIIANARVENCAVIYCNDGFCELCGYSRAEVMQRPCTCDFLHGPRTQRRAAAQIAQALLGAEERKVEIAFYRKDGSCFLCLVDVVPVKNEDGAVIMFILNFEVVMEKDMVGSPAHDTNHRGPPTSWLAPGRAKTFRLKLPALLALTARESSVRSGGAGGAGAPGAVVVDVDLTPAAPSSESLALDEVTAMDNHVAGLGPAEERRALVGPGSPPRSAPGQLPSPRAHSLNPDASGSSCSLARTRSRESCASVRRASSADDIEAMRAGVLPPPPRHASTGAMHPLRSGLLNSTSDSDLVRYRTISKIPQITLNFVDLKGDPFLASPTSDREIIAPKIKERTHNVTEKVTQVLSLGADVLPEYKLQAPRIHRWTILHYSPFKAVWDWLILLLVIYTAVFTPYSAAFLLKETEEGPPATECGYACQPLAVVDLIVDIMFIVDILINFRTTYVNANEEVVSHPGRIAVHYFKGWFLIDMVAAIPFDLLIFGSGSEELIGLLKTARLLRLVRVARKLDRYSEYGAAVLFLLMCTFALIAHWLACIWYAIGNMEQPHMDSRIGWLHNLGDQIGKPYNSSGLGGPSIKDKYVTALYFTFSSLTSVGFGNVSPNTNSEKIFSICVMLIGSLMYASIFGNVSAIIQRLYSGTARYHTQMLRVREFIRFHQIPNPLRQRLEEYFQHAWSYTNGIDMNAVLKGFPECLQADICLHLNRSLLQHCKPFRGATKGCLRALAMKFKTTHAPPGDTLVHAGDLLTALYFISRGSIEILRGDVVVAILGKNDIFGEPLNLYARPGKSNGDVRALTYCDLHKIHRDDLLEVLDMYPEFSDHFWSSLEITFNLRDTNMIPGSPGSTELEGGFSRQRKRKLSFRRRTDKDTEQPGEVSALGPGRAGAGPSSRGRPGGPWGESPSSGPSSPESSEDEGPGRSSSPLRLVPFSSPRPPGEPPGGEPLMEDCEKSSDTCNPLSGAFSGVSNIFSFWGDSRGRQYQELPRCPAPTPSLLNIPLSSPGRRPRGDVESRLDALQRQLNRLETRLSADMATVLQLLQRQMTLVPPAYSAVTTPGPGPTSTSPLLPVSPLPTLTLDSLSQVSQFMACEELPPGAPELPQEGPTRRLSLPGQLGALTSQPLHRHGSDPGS
A further data set relates to calpain. The experiment in a line: Calpain activity assay in EDL homogenates of chronically exercised mice. In kind it is in vivo, mouse. As to the method:
(§1) Calpain and Creatine Kinase Assays: Tissue calpain activities were measured using a calpain activity assay kit (Calbiochem, San Diego, Calif.) (FIG. 42B). This assay is based on the degradation of the fluorescent peptide substrate Suc-LLVY-AMC (Calbiochem). Muscle homogenates were diluted to a final concentration of 600 μg/ml and the calpain activity in the homogenate was determined as per manufactures instructions. Plasma creatine kinase (CK) activity was assayed using the regent kit from Pointe Scientific, Inc. (Canton, Mich.) (FIG. 42A). Plasma samples (duplicates, 5 μl each) were added to 200 μl of CK reagent and the change in absorbance at 340 nm was recorded over 4 minutes using a plate reader. The average absorbance change per minute was used to determine the CPK levels as per manufacturer's instructions.
(§2) Reduced calpain activation in muscle tissue and reduced muscle tissue damage due to calstabin1 rebinding: One possible mechanism by which calcium released by leaky RyR1 channels impairs exercise performance is the activation of a member of the calpain family of Ca^2+-dependent neutral proteases, which are known to be responsible for muscle damage in a number of pathophysiological states. […] Calpain activity in muscle homogenates was assessed by means of the degradation of the synthetic calpain substrate Suc-LLVY-AMC, which fluoresces upon cleavage by calpain.

Data set [1] can be described thus: Plasma creatine kinase (CPK) activity in chronically exercised mice. In kind it is in vivo, mouse. As for the experimental part:
as §1, §2

The test system of another data set is C57BL/6J mice. Kind of data set: Morris water maze spatial learning in exercised mice. The conditions noted are these: end of 21-day testing period, p approximately 0.2, n=8. In kind it is in vivo, mouse. As to the method:
16 wild type C57BL/6J 3-month-old mice, pairwise-matched for sex, age, and body weight, were randomized to either S 107 treatment (10 mg/ml; 0.25 μl/hr subcutaneous osmotic pump) or “vehicle” (25% DMSO in dH2O) treatment groups.
Mice were sacrificed after 21 days for performing biochemistry, calcium imaging and ex vivo function studies.
The layout of the water maze system consists of a circular water tank divided into four quadrants (labeled 1 thru 4 in FIG. 58, with four hidden platforms (labeled 5 to 8 in FIG. 58). The following protocol was followed: Day 1: mice trained to find “hidden” platform with visible marker on platform from random starting location. On days 2-4, the visible cue was removed, and mice were repeatedly challenged to find hidden platform at target 5 in quadrant 1. The time taken for each mouse to reach the target, i.e. the “latency,” was recorded. On day 5, the previous day's protocol was repeated, then the hidden platform was removed, and each mouse's movements recorded to quantify time in various target regions. The protocol was repeated in week 2.
The platform was then removed, and the swimming pattern of the mice was assessed at the end of the 21-day testing period.

hERG current, sequence (Q12809 whole entry): as above

Regarding `COc1ccc2c(c1)CN(C)CCS2` [S107], the “Mean % hERG Inhibition” value was found to be 2.9% at hERG current (0.01 μM), 4.0% at hERG current (0.1 μM), 6.2% on hERG current (1 μM) and 32.1% at hERG current (10 μM). Moreover, the “Individual Data (% Inhibition)” value at hERG current (0.01 μM, listed as ARM107, 0.01 µM) is 1.7% and 4.0%; at hERG current (0.1 μM, listed as ARM107, 0.1 µM), 3.1% and 4.8%; on hERG current (1 μM, listed as ARM107, 1 µM), 2.0% and 10.4%; at hERG current (10 μM, listed as ARM107, 10 µM), 24.2% and 39.9%. Further, the “hERG current inhibition at the highest concentration tested” value on hERG current (highest concentration tested (10 μM)) is “less than 50%”. Moreover, the “effect on hERG potassium current” value at hERG potassium current is given as “not to affect”. Further, in the data set on calpain, the “Calpain activity in EDL homogenates” value is “significantly reduced”. Besides, the “plasma CPK activity levels” value in data set [1] is on record as “reduced close to the levels observed in sedentary controls”. In addition, the “learning / persistence in Morris water maze probe” value in the data set on C57BL/6J mice is “trend towards improved learning or increased persistence”.
For `COc1ccc2c(c1)CN(C(=O)C(=O)O)CCS2` [S36], the “plasma levels preventing exercise-induced sudden cardiac death compared with JTV-519” value with FKBP12.6+/− mice (mouse, in vivo) is recorded as “lower plasma levels compared with JTV-519”. The “cardiac arrhythmias and sudden cardiac death” value with FKBP12.6+/− mice (plasma level 0.02 μM) and in the data set with FKBP12.6+/− mice (plasma level 1 μM) was “prevent” in each case.
